Measured values taken from patent US11384071B2, “Inhibitors of mechanotransduction to treat pain and modulate touch perception” (Max-Delbrück-Centrum für Molekulare Medizin in der …, priority 2016, dated 2022).

How the values were obtained:
[1] = test system: mechanically gated currents in nociceptors; test: Pillar array analysis of mechanically gated currents in DRG nociceptors; format: cell-based, mouse; settings: for amplitude of mechanically gated currents in nociceptors: stimulus magnitudes between 100 and 500 nm
Protocol: (§1) HEK-293 cells (passage numbers 4-20) were cultured in DMEM plus 10% fetal calf serum (FCS). Neuro2A (N2A) cells were cultured in DMEM/Opti-MEM media plus 10% FCS.—Sensory DRG neurons were isolated from 4 week old Mus musculus (C57Bl/6). Approximately 20 ganglia were collected from each mouse and individual cells were isolated by treating ganglia with […] collagenase IV for 30 min, followed by 1 ml of 0.05% trypsin, in PBS, for 5-20 min at 37° C. Enzyme-treated ganglia, in DMEM/F-12 media containing 10% Horse Serum (HS), were disrupted by gently passaging through a 20 G needle; cells were then collected by centrifugation (1000 rpm, 3 min), washed and finally re-suspended in DMEM/F-12, 10% HS media (at no point were neurotrophins added to the culture). Sensory neurons were then seeded on EHS-laminin coated substrate and cultured overnight. Experiments involving isolated sensory neurons were conducted within 24-36 hours of isolation of the cells.
(§2) Whole-cell, patch-clamp recordings were conducted as previously described 5-7, using patch pipettes with a tip resistance of 3-6 MΩ, filled with a solution of: 110 mM KCl, 10 mM NaCl, 1 mM MgCl2, 1 mM EGTA and 10 mM HEPES, adjusted to pH 7.3 with KOH. (For experiments on DRG neurons 10 mM QX-314 was added to the pipette to block voltage-gated sodium channels 8 Extracellular solutions contained 140 mM NaCl, 4 mM KCl, 2 mM CaCl2, 1 mM MgCl2, 4 mM glucose, 10 mM HEPES, adjusted to pH 7.4 with NaOH. A Zeiss 200 inverted microscope and an EPC-10 amplifier in combination with Patchmaster software was used, data was analyzed using Fitmaster software (HEKA Electronik GmbH, Germany). Pipette and membrane capacitance were compensated using the auto function of Patchmaster, series resistance was compensated by at least 60% to minimize voltage errors. Mechanical stimuli were applied using a polished glass probe driven by the MM3A micromanipulator (Kleindiek Nanotechnik, Germany). […]
(§3) Briefly, elastomeric pillar arrays of defined dimensions were cast in PDMS with an elasticity of 2 MPa. Cells cultured on these arrays were monitored using whole-cell patch-clamp whilst a glass probe was used to apply repeated deflections (of differing magnitudes) to an individual pilus directly beneath the cell. Images were obtained of the pilus before and after deflection and images were analyzed off-line to determine the exact deflection for each data point. […] Images were analyzed off-line using Igor software (WaveMetrics, USA). […] A power analysis was used to determine that moderate to strong effects between samples could be detected with a sample size >4. […] For quantitative analysis of mechanosensitivity we measured responses in the most sensitive sub-population of mechanoreceptors, previously defined as Typell mechanoreceptors (Poole et al., 2014).

STOML3 = biological target: T1, STOML3 (Mus musculus, UniProt Q6PE84); test: BiFC assay of STOML3 self-association in HEK-293 cells; format: cell-based; settings: for STOML3 self-association based on the slope of YFP signal development: primary screen of about 35000 small molecules, each at 10 M (so in the source)
T1 construct: expressed in transfected cells; host or cells: HEK-293
T1 sequence (Q6PE84 1-287): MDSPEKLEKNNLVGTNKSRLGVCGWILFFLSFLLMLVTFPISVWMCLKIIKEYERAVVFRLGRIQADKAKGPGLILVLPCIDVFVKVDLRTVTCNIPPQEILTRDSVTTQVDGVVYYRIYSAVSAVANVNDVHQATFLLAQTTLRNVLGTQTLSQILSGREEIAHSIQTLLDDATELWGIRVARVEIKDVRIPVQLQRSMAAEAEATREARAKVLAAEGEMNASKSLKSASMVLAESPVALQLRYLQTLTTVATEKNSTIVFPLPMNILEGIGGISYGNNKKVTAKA
Protocol: HEK-293 cells were cultured in T-150 flasks to approximately 70% confluence; cells were co-transfected with plasmids encoding STOML3-VC and STOML3-VN using Fugene-HD, as per manufacturer's instructions. The transfection reaction was allowed to proceed for 8 h before cells were recovered from the dishes, resuspended in DMEM media containing 25 mM HEPES and lacking phenol red. Cells were plated in PLL-coated 384 well plates using an automated dispenser (EL406 Microplate Washer Dispenser). Plates already contained compound from the ChemBioNet compound library1. The final assay volume was 40 μl cells with 10 μM of compound. […] Development of the YFP fluorescence signal was monitored overnight (15 h), with readings taken every 3 h (ex: 515±8 nm, em: 535±8 nm). In between readings cells were maintained at 37° C., 5% CO2, and 95% humidity. The overnight monitoring of signal development was performed on a Freedom Evo workstation equipped with a robotic arm for plate transport and a Safirell plate reader for fluorescence measurement (Tecan Group Ltd, Männedorf, Switzerland), and an integrated STX44-ICSA automated plate incubator (Liconic AG, Mauren, Liechtenstein) for plate storage in between measurements. Experiments were repeated with 20 plates each day until the entire compound library had been screened and data was normalized to in-plate controls.
Compounds of interest were selected from the slope of YFP-signal vs time. Each well was compared to the average slope of in-plate positive controls (normalized percent activity), and compared to the mean and standard deviation of all samples on a plate (without the controls), giving a Z score as a measure of statistical significance. Initially, compounds were re-screened in triplicate to confirm whether or not the noted differences were repeatable; compounds with confirmed activity were selected for further analysis.
In mammals STOML3 belongs to a family of five structurally conserved membrane proteins, including stomatin, STOML1, STOML2, and podocin^10,12-16, all of which self-associate via their stomatin-domain (FIG. 8a)^10. Self-association of stomatin-domain proteins can be monitored in HEK293 cells using Bimolecular Fluorescence Complementation (BiFC) whereby N- and C-terminal halves of the YFP molecule are tagged to the prey and bait protein STOML3^2,17 (FIG. 1a). Irreversible association of the YFP fragments produces fluorescence that increases linearly over time (FIG. 1b).

[2] = test system: mechanically gated currents in mechanoreceptors; test: Pillar array analysis of mechanically gated currents in DRG mechanoreceptors; format: cell-based, mouse; settings: for sensitivity of mechanically gated currents in mechanoreceptors: acutely cultured mouse sensory neurons; for pillar deflections at which mechanically-gated currents are significantly inhibited: mechanoreceptors, FIG. 2e
Protocol: as §1, §2, §3

normalized slope of BiFC signal development (STOML3; 2 μm and 20 μm, wild type STOML3 as bait and prey) | BiFC signal (STOML3; lower OB-1 concentration, 2 M (so in the source)) | STOML3 self-association based on the slope of YFP signal development (STOML3) | sensitivity of mechanically gated currents in mechanoreceptors [2] | Structure (SMILES) | amplitude of mechanically gated currents in nociceptors [1] | pillar deflections at which mechanically-gated currents are significantly inhibited [2] | activation time constant for current activation τ1 ([1]; nociceptors) | latency for mechanically gated currents ([1]; nociceptors)
significantly reduced | inhibited | most effective inhibitory compounds | substantially reduced | CCOC(=O)c1c(-c2ccccc2)oc2ccc(Oc3c([N+](=O)[O-])ncn3C)cc12 [OB-1, Ethyl 5-((1-methyl-4-nitro-1H-imidazol-5-yl)oxy)-2-phenylbenzofuran-3-carboxylate] | significant reduction | up to 250 nm |  | 
 |  | most effective inhibitory compounds | substantially reduced | Cc1ccnc(NC(=O)CSc2nnc3c4ccccc4n(Cc4ccccc4)c3n2)c1 [OB-2] | significant reduction | less than 50 nm | significantly slowed | significantly slowed
